# Data taken from the supplement of paper PMC10307832.
# Compound: C[C@@H](C(=O)N[C@@H](C1CCCCC1)C(=O)N2CCC[C@H]2C(=O)N[C@@H]3[C@@H](CC4=CC=CC=C34)OCC#CC#CCO[C@@H]5CC6=CC=CC=C6[C@@H]5NC(=O)[C@@H]7CCCN7C(=O)[C@H](C8CCCCC8)NC(=O)[C@H](C)NC)NC [AZD5582] + CS(=O)(=O)N1CCN(Cc2cc3nc(-c4cccc5[nH]ncc45)nc(N4CCOCC4)c3s2)CC1 [Pictilisib] (partner 1 µM)
# Assay: relative viability (nuclei count vs DMSO), 5 days (fraction); higher = more cells survive
# Settings: first compound 0.001581 µM
# In short: (§1)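 Dosing by pin tool came one day after lung cancer cell lines were seeded in 1536-well plates, using either one drug or a fixed anchor-drug dose plus five library-drug doses (not always all listed) in √10 steps. After 5 days, nuclei were counted on 4× images. Relative viability is treated-well nuclei count divided by vehicle-well nuclei count, and values are medians of duplicate plates.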
row,Cell Line,relative viability
1,NCI-H358,0.426
2,NCI-H460,0.277
3,NCI-H520,0.266
4,NCI-H596,0.31
5,NCI-H647,0.388
6,NCI-H650,0.645
7,NCI-H661,0.36
8,NCI-H727,0.258
9,NCI-H838,0.39
10,NCI-H1299,0.702
11,NCI-H1355,0.372
12,NCI-H1395,0.601
13,NCI-H1437,0.439
14,NCI-H1563,0.644
15,NCI-H1650,0.535
16,NCI-H1651,0.616
17,NCI-H1666,0.481

row,Cell Line,relative viability
1,NCI-H1734,0.455
2,NCI-H1755,0.349
3,NCI-H1792,0.278
4,NCI-H1793,0.288
5,NCI-H1915,0.88
6,NCI-H1944,0.344
7,NCI-H1975,0.3
8,NCI-H1993,0.916
9,NCI-H2009,0.741
10,NCI-H2023,0.227
11,NCI-H2085,0.572
12,NCI-H2087,0.871
13,NCI-H2126,0.505
14,NCI-H2170,0.3
15,NCI-H2228,0.286
16,NCI-H2347,0.712
17,NCI-H2405,0.459

# Same assay, conditions: first compound 0.005 µM
row,Cell Line,relative viability
1,NCI-H358,0.308
2,NCI-H460,0.329
3,NCI-H520,0.283
4,NCI-H596,0.348
5,NCI-H647,0.449
6,NCI-H650,0.702
7,NCI-H661,0.416
8,NCI-H727,0.4
9,NCI-H838,0.467
10,NCI-H1299,0.879
11,NCI-H1355,0.379
12,NCI-H1395,0.698
13,NCI-H1437,0.452
14,NCI-H1563,0.642
15,NCI-H1650,0.738
16,NCI-H1651,0.656
17,NCI-H1666,0.48

row,Cell Line,relative viability
1,NCI-H1734,0.514
2,NCI-H1755,0.424
3,NCI-H1792,0.345
4,NCI-H1793,0.311
5,NCI-H1915,0.999
6,NCI-H1944,0.389
7,NCI-H1975,0.348
8,NCI-H1993,0.807
9,NCI-H2009,0.998
10,NCI-H2023,0.288
11,NCI-H2085,0.44
12,NCI-H2087,1.02
13,NCI-H2126,0.556
14,NCI-H2170,0.352
15,NCI-H2228,0.352
16,NCI-H2347,0.446
17,NCI-H2405,0.856

# Same assay, conditions: first compound 0.01581 µM
row,Cell Line,relative viability
1,NCI-H358,0.394
2,NCI-H460,0.366
3,NCI-H520,0.303
4,NCI-H596,0.413
5,NCI-H650,0.759
6,NCI-H661,0.403
7,NCI-H727,0.413
8,NCI-H838,0.362
9,NCI-H1299,0.822
10,NCI-H1355,0.289
11,NCI-H1437,0.48
12,NCI-H1563,0.62
13,NCI-H1650,0.485
14,NCI-H1651,0.539
15,NCI-H1666,0.413
16,NCI-H1734,0.451

row,Cell Line,relative viability
1,NCI-H1755,0.306
2,NCI-H1792,0.28
3,NCI-H1793,0.299
4,NCI-H1915,0.824
5,NCI-H1944,0.297
6,NCI-H1975,0.315
7,NCI-H1993,0.796
8,NCI-H2009,0.467
9,NCI-H2023,0.172
10,NCI-H2085,0.488
11,NCI-H2087,0.905
12,NCI-H2126,0.436
13,NCI-H2170,0.28
14,NCI-H2228,0.378
15,NCI-H2347,0.637

# Same assay, conditions: first compound 0.05 µM
row,Cell Line,relative viability
1,NCI-H358,0.308
2,NCI-H460,0.337
3,NCI-H520,0.311
4,NCI-H596,0.191
5,NCI-H647,0.458
6,NCI-H650,0.589
7,NCI-H661,0.399
8,NCI-H727,0.257
9,NCI-H838,0.59
10,NCI-H1299,0.805
11,NCI-H1355,0.361
12,NCI-H1395,0.632
13,NCI-H1437,0.409
14,NCI-H1563,0.729
15,NCI-H1650,0.604
16,NCI-H1651,0.723
17,NCI-H1666,0.407

row,Cell Line,relative viability
1,NCI-H1734,0.631
2,NCI-H1755,0.398
3,NCI-H1792,0.35
4,NCI-H1793,0.397
5,NCI-H1915,0.936
6,NCI-H1944,0.389
7,NCI-H1975,0.409
8,NCI-H1993,0.859
9,NCI-H2009,0.705
10,NCI-H2023,0.246
11,NCI-H2085,0.584
12,NCI-H2087,0.986
13,NCI-H2126,0.533
14,NCI-H2170,0.319
15,NCI-H2228,0.193
16,NCI-H2347,0.894
17,NCI-H2405,0.612

# Compound: Cn1nnc2c(C(N)=O)ncn2c1=O [Temozolomide] + CS(=O)(=O)CCNCc1ccc(-c2ccc3ncnc(Nc4ccc(OCc5cccc(F)c5)c(Cl)c4)c3c2)o1 [Lapatinib] (partner 2 µM)
# Assay: as above
# Settings: first compound 0.2 µM
# In short: as §1
row,Cell Line,relative viability
1,NCI-H358,0.538
2,NCI-H460,1.23
3,NCI-H520,0.927
4,NCI-H596,1.3
5,NCI-H647,1.41
6,NCI-H650,1.02
7,NCI-H727,0.907
8,NCI-H838,0.998
9,NCI-H1299,1.03
10,NCI-H1355,1.06
11,NCI-H1395,1.07
12,NCI-H1437,0.8
13,NCI-H1563,0.889
14,NCI-H1650,0.991
15,NCI-H1651,0.969
16,NCI-H1666,0.626

row,Cell Line,relative viability
1,NCI-H1734,1.12
2,NCI-H1755,1.11
3,NCI-H1792,1.06
4,NCI-H1915,0.995
5,NCI-H1944,0.835
6,NCI-H1975,1.02
7,NCI-H1993,0.879
8,NCI-H2009,1.12
9,NCI-H2023,0.894
10,NCI-H2085,0.75
11,NCI-H2087,1.07
12,NCI-H2126,0.82
13,NCI-H2228,1.15
14,NCI-H2347,1.18
15,NCI-H2405,1.12

# Same assay, conditions: first compound 0.6325 µM
row,Cell Line,relative viability
1,NCI-H358,0.572
2,NCI-H460,1.03
3,NCI-H520,0.87
4,NCI-H596,1.11
5,NCI-H647,1.16
6,NCI-H650,0.888
7,NCI-H661,0.599
8,NCI-H727,0.804
9,NCI-H838,1.03
10,NCI-H1299,0.98
11,NCI-H1355,1.01
12,NCI-H1395,1.19
13,NCI-H1437,0.817
14,NCI-H1563,0.89
15,NCI-H1650,0.925
16,NCI-H1651,0.881
17,NCI-H1666,0.706

row,Cell Line,relative viability
1,NCI-H1734,1.06
2,NCI-H1755,1.05
3,NCI-H1792,0.973
4,NCI-H1793,0.81
5,NCI-H1915,0.935
6,NCI-H1944,0.831
7,NCI-H1975,0.946
8,NCI-H1993,0.854
9,NCI-H2009,0.739
10,NCI-H2023,0.67
11,NCI-H2085,0.751
12,NCI-H2087,0.992
13,NCI-H2126,0.771
14,NCI-H2170,0.28
15,NCI-H2228,1.04
16,NCI-H2347,1.01
17,NCI-H2405,1.08

# Same assay, conditions: first compound 2 µM
row,Cell Line,relative viability
1,NCI-H358,0.475
2,NCI-H460,1.12
3,NCI-H520,1
4,NCI-H596,1.26
5,NCI-H647,1.27
6,NCI-H650,0.995
7,NCI-H661,0.506
8,NCI-H727,0.865
9,NCI-H838,1.17
10,NCI-H1299,0.994
11,NCI-H1355,0.974
12,NCI-H1395,1.5
13,NCI-H1437,0.822
14,NCI-H1563,0.993
15,NCI-H1650,0.783
16,NCI-H1651,0.876
17,NCI-H1666,0.486

row,Cell Line,relative viability
1,NCI-H1734,1.07
2,NCI-H1755,0.966
3,NCI-H1792,0.895
4,NCI-H1793,0.608
5,NCI-H1915,0.876
6,NCI-H1944,0.871
7,NCI-H1975,1.1
8,NCI-H1993,0.768
9,NCI-H2009,0.973
10,NCI-H2023,0.86
11,NCI-H2085,0.75
12,NCI-H2087,0.902
13,NCI-H2126,0.793
14,NCI-H2170,0.295
15,NCI-H2228,1.3
16,NCI-H2347,0.93
17,NCI-H2405,1.21

# Same assay, conditions: first compound 6.325 µM
row,Cell Line,relative viability
1,NCI-H358,0.439
2,NCI-H460,1
3,NCI-H520,0.903
4,NCI-H596,0.929
5,NCI-H647,0.891
6,NCI-H650,1.03
7,NCI-H661,0.433
8,NCI-H727,0.665
9,NCI-H838,0.945
10,NCI-H1299,0.97
11,NCI-H1355,1.02
12,NCI-H1395,0.903
13,NCI-H1437,0.875
14,NCI-H1563,0.859
15,NCI-H1650,0.662
16,NCI-H1651,0.754
17,NCI-H1666,0.495

row,Cell Line,relative viability
1,NCI-H1734,0.955
2,NCI-H1755,0.979
3,NCI-H1792,0.899
4,NCI-H1793,0.649
5,NCI-H1915,0.693
6,NCI-H1944,0.843
7,NCI-H1975,0.846
8,NCI-H1993,0.865
9,NCI-H2009,0.911
10,NCI-H2023,0.773
11,NCI-H2085,0.779
12,NCI-H2087,1.09
13,NCI-H2126,0.771
14,NCI-H2170,0.264
15,NCI-H2228,0.959
16,NCI-H2347,0.781
17,NCI-H2405,0.921

# Same assay, conditions: first compound 20 µM
row,Cell Line,relative viability
1,NCI-H358,0.419
2,NCI-H460,1.24
3,NCI-H520,0.993
4,NCI-H596,1.2
5,NCI-H647,0.275
6,NCI-H650,1.07
7,NCI-H661,0.508
8,NCI-H727,0.693
9,NCI-H838,1.25
10,NCI-H1299,0.962
11,NCI-H1355,0.99
12,NCI-H1395,0.968
13,NCI-H1437,0.975
14,NCI-H1563,1
15,NCI-H1650,0.743
16,NCI-H1651,0.934
17,NCI-H1666,0.536

row,Cell Line,relative viability
1,NCI-H1734,1.05
2,NCI-H1755,0.98
3,NCI-H1792,0.861
4,NCI-H1793,0.694
5,NCI-H1915,0.376
6,NCI-H1944,0.799
7,NCI-H1975,0.987
8,NCI-H1993,0.925
9,NCI-H2009,1.01
10,NCI-H2023,0.868
11,NCI-H2085,0.778
12,NCI-H2087,0.983
13,NCI-H2126,0.797
14,NCI-H2170,0.247
15,NCI-H2228,1.18
16,NCI-H2347,0.908
17,NCI-H2405,1.05

# Compound: C[C@@H](C(=O)N[C@@H](C1CCCCC1)C(=O)N2CCC[C@H]2C(=O)N[C@@H]3[C@@H](CC4=CC=CC=C34)OCC#CC#CCO[C@@H]5CC6=CC=CC=C6[C@@H]5NC(=O)[C@@H]7CCCN7C(=O)[C@H](C8CCCCC8)NC(=O)[C@H](C)NC)NC [AZD5582]
# Assay: relative viability (nuclei count vs DMSO), 5 days (fraction); higher = more cells survive
# Settings: 0.001581 µM
# In short: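 MetaXpress counted nuclei in 4× images of lung cancer cell lines that had been fixed, permeabilised and Hoechst-stained in one step. Before that, cells in 1536-well plates were kept overnight at 37 °C, pinned with five √10-spaced library-drug doses on vehicle-anchored plates, and cultured 5 days without medium change. Viability takes treated-well nuclei over vehicle-well nuclei and uses the median across plates. Plates were accepted only at control CV below 25% and at least one doubling.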
row,Cell Line,relative viability
1,NCI-H358,0.915
